Here are results for three compounds from patent publication US20220323406A1, “METHODS AND COMPOSITIONS FOR DIFFERENTIATING STEM CELLS” (Massachusetts Institute of Technology, priority 2019, published 2022).

Conditions in all cases: primary screen
Assay [1] has as its system ENR+CD organoids. The assay is described as follows: Primary screen: ATP (CellTiter-Glo 3D, CTG) cell number/viability, 2.5-D 384-well ENR+CD organoids.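 Note: compounds given at plating and again on day 3 over a 6-day differentiation from ENR+CV stem-cell-enriched precursors, ATP measured on day 6, plate median as control.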 In general terms: In ATP-based viability assays light output follows the ATP content of the culture.
Assay [2] relates to ENR+CD organoids (ISC to Paneth cell differentiation). The assay can be described thus: Primary screen: CCh-stimulated lysozyme secretion LYZ.S, 2.5-D 384-well ENR+CD organoid differentiation. The class given is cell-based, mouse. An excerpt:
(§1) High-throughput screening.

Assay [3] shares this test system. The assay is described as follows: Primary screen: basal (non-stimulated) lysozyme secretion LYZ.NS, 2.5-D 384-well ENR+CD organoid differentiation. Type of assay: cell-based, mouse.
Description: as §1

Take `C[C@@H](c1ncncc1F)[C@](O)(Cn1cncn1)c1ccc(F)cc1F` [Voriconazole]: the Dose.FC.CTG in assay [1] (dose 0.08 uM) is reported as 0.258 log2 fold change; in assay [1] (dose 0.40 uM), 0.306 log2 fold change; in assay [1] (dose 2.00 uM), 0.285 log2 fold change; in assay [1] (dose 10.00 uM) it was 0.328 log2 fold change. Also, the Dose.FC.LYZ.S in assay [2] (dose 0.08 uM) is on record as 0.180 log2 fold change; in assay [2] (dose 0.40 uM), 0.120 log2 fold change; in assay [2] (dose 2.00 uM) it was 0.097 log2 fold change; in assay [2] (dose 10.00 uM), 0.048 log2 fold change. The Dose.FC.LYZ.NS in assay [3] (dose 0.08 uM) is 0.252 log2 fold change; in assay [3] (dose 0.40 uM), 0.193 log2 fold change; in assay [3] (dose 2.00 uM) it was 0.067 log2 fold change; in assay [3] (dose 10.00 uM), 0.018 log2 fold change. The “Z.LYZ.NS (standard z score)” value is given as 2.192 in assay [3] (dose 0.08 uM), 1.682 in assay [3] (dose 0.40 uM), 0.588 in assay [3] (dose 2.00 uM) and 0.153 in assay [3] (dose 10.00 uM).

Consider `c1ccc(NCc2ccc(CNc3ccccn3)cc2)nc1` [WZ811], for which the Dose.FC.CTG in assay [1] (dose 0.08 uM) was 0.140 log2 fold change; in assay [1] (dose 0.40 uM) it was −0.034 log2 fold change; in assay [1] (dose 2.00 uM), 0.077 log2 fold change; in assay [1] (dose 10.00 uM), 0.044 log2 fold change. Besides, the “Z.CTG (standard z score)” value in assay [1] (dose 0.08 uM) was 0.334; in assay [1] (dose 0.40 uM), −0.082; in assay [1] (dose 2.00 uM), 0.184; in assay [1] (dose 10.00 uM) it was 0.104. For the same compound, the Dose.FC.LYZ.S in assay [2] (dose 0.08 uM) is on record as 0.296 log2 fold change; in assay [2] (dose 0.40 uM), 0.007 log2 fold change; in assay [2] (dose 2.00 uM), 0.074 log2 fold change; in assay [2] (dose 10.00 uM) it was 0.019 log2 fold change. Moreover, the Dose.FC.LYZ.NS is on record as 0.154 log2 fold change in assay [3] (dose 0.08 uM), 0.019 log2 fold change in assay [3] (dose 0.40 uM), 0.094 log2 fold change in assay [3] (dose 2.00 uM) and 0.005 log2 fold change in assay [3] (dose 10.00 uM). Further, the “Z.LYZ.NS (standard z score)” value in assay [3] (dose 0.08 uM) is given as 1.337; in assay [3] (dose 0.40 uM), 0.162; in assay [3] (dose 2.00 uM) it was 0.815; in assay [3] (dose 10.00 uM), 0.045.

As to `CCC(=O)Nc1cccc(Oc2nc(Nc3ccc(N4CCN(C)CC4)cc3OC)ncc2Cl)c1` [WZ4003], the Dose.FC.CTG is given as 0.375 log2 fold change in assay [1] (dose 0.08 uM), 0.173 log2 fold change in assay [1] (dose 0.40 uM), 0.076 log2 fold change in assay [1] (dose 2.00 uM) and −0.018 log2 fold change in assay [1] (dose 10.00 uM). The “Z.CTG (standard z score)” value in assay [1] (dose 0.08 uM) is recorded as 0.896; in assay [1] (dose 0.40 uM), 0.413; in assay [1] (dose 2.00 uM), 0.180; in assay [1] (dose 10.00 uM), −0.043. Moreover, the Dose.FC.LYZ.S was 0.117 log2 fold change in assay [2] (dose 0.08 uM), −0.034 log2 fold change in assay [2] (dose 0.40 uM), −0.035 log2 fold change in assay [2] (dose 2.00 uM) and −0.142 log2 fold change in assay [2] (dose 10.00 uM). Besides, the Dose.FC.LYZ.NS in assay [3] (dose 0.08 uM) was 0.074 log2 fold change; in assay [3] (dose 0.40 uM) it was −0.041 log2 fold change; in assay [3] (dose 2.00 uM) it was −0.017 log2 fold change; in assay [3] (dose 10.00 uM), −0.098 log2 fold change. The “Z.LYZ.NS (standard z score)” value in assay [3] (dose 0.08 uM) was 0.644; in assay [3] (dose 0.40 uM), −0.359; in assay [3] (dose 2.00 uM), −0.151; in assay [3] (dose 10.00 uM) it was −0.850.
